Patent US20230026808A1, “COMPOUNDS, COMPOSITIONS, AND METHODS FOR TREATING ISCHEMIA-REPERFUSION INJURY AND/OR LUNG INJURY” (YALE UNIVERSITY, priority 2019, published 2023)
“Also recorded” adds a separate entry of the source. Read-outs that look alike come from different tables or passages of the source. Marks after values point to notes of the source that are not given here.

Legend:
LPS-induced ALI = assay: LPS-induced acute lung injury mouse model; format: in vivo
mouse neutrophils = assay: ROS release assay in mouse neutrophils; format: cell-based; settings: fMLP (1 μM)
Description: (§1) Mouse bone marrow neutrophils were isolated from long bones. After lysis of red blood cells (RBCs) with ACK buffer (155 mM NH4Cl, 10 mM KHCO3 and 127 μM EDTA), bone marrow cells were separated on a discontinuous Percoll gradient composed of 81%, 62%, and 45% Percoll. Neutrophils were collected at the interphase between 81% and 62% Percoll, washed in HBSS, and used for assays.
For measurement of extracellular ROS release, isolated neutrophils were placed in the reaction buffer (0.25% BSA in HBSS with Ca^2+ and Mg^2+, 10 mM Isoluminol, 100 u/ml HRP) and stimulated with fMLP or PMA. For measurement of total ROS production, neutrophils were incubated with the reaction buffer (0.25% BSA in HBSS with Ca^2+ and Mg^2+, 10 mM Luminol, 100 u/ml HRP), followed with stimulations. Chemiluminescence was read continuously in a plate reader (Perkin Elmer). For reconstituted ROS production system in COS-7 cells, PMA (2 μM) was used for stimulation.

HCl-induced ALI = assay: Acid aspiration (HCl)-induced acute lung injury mouse model; format: in vivo; settings: for BAL cytokine contents / myeloid cell (neutrophil) infiltration in BAL and lungs: injured lungs; for phosphorylated AKT levels in lung extracts: lungs subjected to ALI, AKT S473; for effect on survival: mice lacking p47^phox in hematopoietic cells
Description: Mice were anaesthetized by ketamine/Xylazine ([…] and 100 mg/kg) and were secured vertically from their incisors on a custom-made mount for orotracheal instillation. A 22G catheter (Jelco, Smiths Medical) was guided 1.5 cm below the vocal cords, and 2.5 μl/g of 0.05 M HCl was instilled. Four hours after the induction of injury, 100 μl of FITC-labeled albumin (10 mg/ml) was injected via retro-orbital vein. Mice were euthanized for sample collection 6 hours after the induction of injury. For the baseline permeability measurement, saline without HCl was administered the same way. The baseline permeability measurement was subtracted in the data presented.
In survival experiments, mice received 2.5 μl/g of 0.1 M HCl orotracheally and the observation period was extended up to 30 h.
Acute lung injury indices were quantified using HE-stained lung sections. The quantification of perivascular interstitial edema was done as the ratios of perivascular interstitial edema areas to vessel areas. More than 8 sections from the same lobes of the lungs were quantified for each mouse.
Fifteen min after HCl ALI-induction, BALs were collected from the lungs. Mouse lungs were then mechanically dissociated and filtered through a 40 μm mesh to generate a single-cell suspension, and red blood cells were lysed. BAL cells, which were pelleted and resuspended, and whole lung cells were labeled for 30 minutes at 37° C. with 1 μM CM-H2-DCFDA (C6827, Invitrogen). The cells were then labeled for the surface markers (CD45; BD Bioscience 564279; Ly-6G; BD Bioscience 560602). Flow cytometry was performed on a BD LSRII.

[1] = test system: brain ischemia-reperfusion injury (IRI); assay: Intraluminal middle cerebral artery (MCA) occlusion brain stroke mouse model; format: in vivo
[2] = cited from earlier work; for AUC / Cmax: human
[3] = test system: lung transplantation-induced injury; assay: Pilot clinical study in paired single lung transplantation recipients; format: in vivo, human
Source text: These represent all of the patients who were eligible for single LT and consented for enrollment into the study between Mar. 1, 2018 and Aug. 31, 2018. […] The baseline characteristics, surgical information, medical records during their ICU stay, as well as ventilator parameters, arterial blood gas analysis, and chest X-ray results within 5 days after LT were collected. All of the five donors were enrolled in a voluntary organ donation program and died of accident or disease.
The chest X-ray scores were obtained in the following manner: the heart field was regarded as the center, and the lung field was divided into four quadrants. Non-opacified regions, 0 points; opacified regions limited to 1/4 lung area, 1 point; limited to 2/4 lung area, 2 points; limited to 3/4 lung area, 3 points; in all lung fields, 4 points. Scores were independently collected by a clinician and a radiologist who were blinded for the treatment, and the average was used. If the difference between the two evaluators was greater than 1 point, discussion was conducted to reach a consensus. Hypoxemia index=PaO2/FiO2, measured by arterial blood gas analysis.
In the pilot clinical study, the linear mixed model repeated measures analysis was performed to compare the hypoxemia and X-ray scores over time between two groups accounting for both within-subject correlation and correlation of paired recipients. Time by group interaction was included in the model to examine the difference in trajectory of outcomes between two groups. Linear contrast was used to compare difference at each post-transplant day, and overall mean difference between groups as well. The analysis was conducted with SAS version 9.4 (SAS Inc., Cary, N.C.). The significance was set as p<0.05, two-sided.

[4] = 800 mg orally once daily in cancer patients; cited from earlier work
[5] = IV toxicology and toxicokinetic studies in rats; settings: for safety margin based on Cmax: vs Cmax 3.4 μg/mL in man (20 mg IV)
[6] = Clinical pharmacokinetics of pazopanib; format: in vivo; settings: human, IV 20 mg/subject, extrapolated
[7] = test system: p47^phox phosphorylation at Ser-208; assay: Western analysis of p47^phox Ser-208 phosphorylation in fMLP-stimulated neutrophils; format: cell-based; settings: fMLP (1 μM) stimulated mouse neutrophils
Description: as §1

[8] = therapeutic modality, intranasally post injury induction
[9] = HCl model, therapeutic modality, intranasally post injury induction
[10] = drug given during ischemic phase
[11] = given i.v. 0.5 hrs after reperfusion
[12] = IV administration 5 mg/subject (N=7)
[13] = oral, reported with bioavailability
[14] = rat, 5 days, IV 20 minute infusion

Structure (SMILES): Cc1ccc(Nc2nccc(N(C)c3ccc4c(C)n(C)nc4c3)n2)cc1S(N)(=O)=O [pazopanib, 5-((4-((2,3-dimethyl-2H-indazol-6-yl)(methyl)amino)pyrimidin-2-yl)amino)-2-methylbenzenesulfonamide]
- mortality (LPS-induced ALI; prophylactic, orally prior to injury): reduced
- mortality (LPS-induced ALI; [8]): significant reductions; also recorded: reduces mortality
- perivascular interstitial edema (LPS-induced ALI; [8]): significant reductions
- ROS production (mouse neutrophils; WT mouse neutrophils): increases in ROS production
- ROS production (mouse neutrophils; WT mouse neutrophils, listed as Pazopanib): increases ROS release
- ROS production (mouse neutrophils; p47^phox-KI neutrophils, 20 nM pazopanib): failed to elevate ROS production
- mortality (HCl-induced ALI; HCl model, prophylactic, intranasally prior to injury): reduced
- mortality (HCl-induced ALI; [9]): significant reductions; also recorded: reduces mortality
- perivascular interstitial edema (HCl-induced ALI; [9]): significant reductions
- BAL cytokine contents (HCl-induced ALI): did not affect
- myeloid cell (neutrophil) infiltration in BAL and lungs (HCl-induced ALI): did not affect
- BAL cytokine contents (HCl-induced ALI; listed as Pazopanib): no significant effects
- myeloid cell (neutrophil) infiltration in BAL and lungs (HCl-induced ALI; listed as Pazopanib): no significant effects
- phosphorylated AKT levels in lung extracts (HCl-induced ALI): increases in phosphorylated AKT levels
- phosphorylated AKT levels in lung extracts (HCl-induced ALI; listed as Pazopanib): increases phosphorylation of AKT at S473
- effect on survival (HCl-induced ALI): abrogated the effects of pazopanib
- effect on survival (HCl-induced ALI; listed as Pazopanib): failed to increase survival
- ROS in neutrophils in BALs and lungs (HCl-induced ALI; pazopanib-treated mice subjected to HCl lung insult, DCFDA): elevated ROS
- brain IRI ([1]; 60 μg retro-orbital intravenous injection 30 min after reperfusion): reduces brain IRI
- brain IRI ([1]; 60 μg retro-orbital intravenous injection immediately after reperfusion): fails to reduce brain IRI
- infarct size of the brain [1, 10]: no improvement
- neurological score [1, 10]: no improvement
- infarct size [1, 11]: less infarct size
- neurological deficit score [1, 11]: improved neurological deficit score
- AUC [2, 12]: 20.4 µg·h/mL
- Cmax [2, 12]: 0.848 µg/mL
- AUC [2, 13]: 806 µg·h/mL
- Cmax [2, 13]: 43.9 µg/mL
- half-life (t1/2) ([2]; in man): 27.5 h
- X-ray opacity score, difference treatment vs control group ([3]; first day, pazopanib 200 mg oral before surgery): 0.6
- X-ray opacity score, difference treatment vs control group ([3]; last day, pazopanib 200 mg oral before surgery): 0.7
- pulmonary edema ([3]; lung transplantation-induced injury): significantly reduced pulmonary edema
- X-ray score lower than control group, on average ([3]; overall mean, pazopanib 200 mg oral before surgery): 0.5 point
- tolerability [4]: well-tolerated
- Margin of safety ([5]; 2-week rat study vs 20 mg clinical starting dose): 5.6 fold
- safety margin based on Cmax ([5]; female rats): 16.2 fold
- safety margin based on Cmax ([5]; male rats): 13.8 fold
- HED for 70 kg human ([5]; rat, 2-week study): 112 mg
- HED of NOAEL [5, 14]: 8 mg/kg
- NOAEL [5, 14]: 50 mg/kg
- Margin of safety ([5]; rat, 5 days, IV 20 minute infusion, clinical dose 20 mg/day or 0.29 mg/kg): 27.6X
- Margin of safety ([5]; rat, 14 days, IV 20 minute infusion, clinical dose 20 mg/day or 0.29 mg/kg): 5.6X
- t1/2 ([5]; rat, in vivo): a few hours
- HED of NOAEL ([5]; rat, single dose, IV bolus): 4.8 mg/kg
- Margin of safety ([5]; rat, single dose, IV bolus, clinical dose 20 mg/day or 0.29 mg/kg): 16.6X
- AUC(0-∞), assuming dose-linearity [6]: 81.6^a μg·h/mL
- Cmax, assuming dose-linearity [6]: 3.4^a μg/mL
- AUC(0-inf) ([6]; in vivo, read-out: AUC(0-∞), assuming dose-linearity): 81600 ng·h/mL
- Cmax ([6]; in vivo, read-out: Cmax, assuming dose-linearity): 3400 ng/mL
- p47^phox phosphorylation at Ser-208 in neutrophils [7]: inhibit p47^phox phosphorylation at Ser-208; also recorded: inhibits phosphorylation of Ser-208 of p47^phox
